Laboratory results from patent publication US5736565A, “Therapeutic compounds suitable for the treatment of diseases connected with glutathione deficiency, process for their preparation, and pharmaceutical compositions containing same” (Prospa B.V., priority 1992, dated 1998).
Values joined by “and” are separate entries in the source; they are usually repeats but may differ in a detail not shown here. Identical values can stand only once. “Also recorded” adds a separate entry of the source. Like-named read-outs stand apart in the source and are kept apart here. Peptide text beside a SMILES is read from it.

Key:
DCP toxicity in the rat = test: Test No. 4: dichloropropane (DCP) intoxication in vivo, death rate and signs; conditions: DCP-treated rats
Experimental: (§1) A test was carried out in vivo on four groups of four rats each, using, as a toxic substance, dichloropropane (DCP), the main constituent of several solvents. DCP is noxious both by ingestion and inhalation and has a notable toxicity to the liver, mediated by an almost total depletion of thiol groups, including those of GSH.
(§2) The experimental model involves the study of the effect of DCP toxicity in the rat, in respect of glutathione (GSH) concentration in the main target tissue: the liver.
(§3) Tests were carried out on four groups of rats. The first group of animals was administered 2 ml DCP/kg dissolved in oil (40% v/v) per os. Twenty-four hours after DCP administration, blood samples were taken for SGPT measurement, while the animals were sacrificed; small portions of liver were then excised and immediately deproteinized by homogenization in 6% PCA. The chromatographic analyses of GSH and GSSG (oxidized glutathione) were performed.
(§4) The second group of animals was treated with the test drug (600 mg/kg i.p.) two hours after DCP administration. The third and fourth groups were treated with N-acetyl-cysteine (NAC) (250 mg/kg i.p.) and, respectively, with glutathione (Tationil^R) (600 mg/kg i.p.).

serum GPT = test: Test No. 4: dichloropropane (DCP) intoxication in vivo, serum GPT; set-up: species or system rat
Experimental: as §1, §2, §3, §4

peripheral lymphocytes = test: Blastization with phytohaemagglutinin (PHA) of peripheral lymphocytes of PSC-treated rats; format: in vivo, Sprague-Dawley rats; conditions: 600 mg/kg i.p. 15 days + PHA
Experimental: Sprague-Dawley rats (Charles River, Calco (CO)), aged 10 weeks (young adults) and 24 months (old), were stabled under standard conditions (24°±1° C., 12 h light/dark cycle, free access to food and water). Handlings were made in such a way as to avoid stressful stimuli.
The animals were stabled in groups of 6 per cage and treated for 2 weeks (15 days) with a PSC daily dose of 600 mg/kg by intraperitoneal route (i.p.).
Once the treatment with PSC previously described in the paragraph "Animals" was completed, the animals, both young and old, were sacrificed by decapitation and the blood collected in heparin-treated tubes. The blood samples were stratified on Ficoll-Paque gradient and centrifuged at 2500 rpm for 15 min. The lymphocytic cellular fraction was taken by suction and washed three times with a Lphysiological solution (0.9% NaCl). At the end of the treatment, the cells were resuspended in culture medium RPMI 1640 containing 10% FBS, counted (1×10^5 cells/0.1 ml/well) and incubated for 48 hrs at 37° C., in a 5% carbon dioxide environment. At the incubation end, mitogens concavaline A (ConA) and phytohaemagglutinin (PHA) were added to the cultures at a concentration of 1 μg/ml in a volume of 0.1 ml. Eighteen hours later, tritiated thymidine (0.01 ml) was added to the cultures, subsequently incubated for 3 hrs. […] Radioactivity (dpm) was measured 2 min. using a β-counter. […]

[1] = test system: glutathione (GSH) in hepatocytes; test: Tests in vitro: glutathione content of isolated rat hepatocytes; format: cell-based; conditions: for activity at 250 µM / activity at 500 µM / activity at 1000 µM / activity at 2500 µM / activity at 5000 µM: read-out: Glutathione concentrations; for activity at 1000 µM: DEM + 1.0 mM; for activity at 5000 µM: DEM + 5.0 mM
Experimental: The experimental model envisages the isolation of hepatic parenchymal cells of rats following perfusion, with collagenase, of the isolated organ. Prior to each test, hepatocytes vitality was quantified by Tripan Blue […]. Only the cells with a vitality greater than 90% were utilized. Hepatocytes were resuspended, at a concentration of 10^6 cells/ml, in a saline medium (Krebs Heinseleit) at ph 7.4, and then placed into rotating flasks in the presence of O2 (95%) and CO2 (5%), at 37° C. Cells keep vital for 5-6 hours at least.
[…] The cells were then washed for 30 min. and incubated with various concentrations of the test substance (from 0.25 to 5 mM).
By this experimental model it is possible to test the effect of the substance by evaluating the hepatic functionality determined by measurements of the vitality (Tables Nos. 3, 4, and 5) and of glutathione content (Tables 6, 7, and 8).
In the Tables 3-8 herein below reported, the controls are represented by normal hepatocytes, not treated either with DEM or with compound (I).

[2] = test system: murine fibrosarcoma cells (WEHI 164 clone 13); test: Transplantable neoplasms: murine fibrosarcoma tumoral mass growth in BALB/c mice; format: in vivo
Experimental: Male adult BALB/c mice weighing 20 g were stabled under standard conditions (24°±1° C., 12 h light/dark cycle, free access to food and water). Handlings were made in such a way as to avoid stressful stimuli.
All animals, subdivided into groups of 6, were treated 4 weeks with a PSC dose (600 mg/kg). After a 2 week treatment, the mice were inoculated intramuscularly (i.m.) with murine fibrosarcoma WEHI 164 clone 13 cells or Lewis lung carcinoma in an amount of 1×10^5 cells. Treatment was continued two weeks after tumour inoculation. The mice were sacrificed and the tumoral mass growth and the development of metastases, if any, were evaluated.

[3] = Rattus norvegicus, Hepatocyte, 0 h, 0 time
[4] = Rattus norvegicus, Hepatocyte, 0.5 h, 30 min
[5] = Rattus norvegicus, Hepatocyte, 1 h, 1 hr
[6] = Rattus norvegicus, Hepatocyte, 2 h, 2 hrs
[7] = Rattus norvegicus, Hepatocyte, 4 h, 4 hrs

## CC(=O)SC[C@H](NC(=O)[C@@H]1CCC(=O)N1)C(=O)O [PSC, 2-(S)-(2-pyrrolidone-5-(S)-carbonyl amido)-3-acetylmercapto propionic acid] (HELM PEPTIDE1{[Glp].C}|PEPTIDE2{[ac]}$PEPTIDE1,PEPTIDE2,2:R3-1:R2$$$V2.0)
DCP toxicity in the rat
  behavioural (torpor) and postural (ataxia) disorders (in words): did not show any notable modification of said parameters
  death (in words): no death occurred
  macroscopic examination of liver (in words): showed liver parenchyma within standard limits
DCP toxicity in the rat; merely qualitative examination
  coagulative disorders (in words): absent
Serum GPT; DCP + 600 mg/kg i.p.
  GPT, average values: 22.0 U/1
Serum GPT; DCP + 600 mg/kg i.p., animals 1-4, listed as (I) (R = CH3), 600 mg/kg
  GPT, individual animals: 24.4 U/1 and 26.4 U/1 and 17.4 U/1 and 20.1 U/1
Serum GPT; DCP + (I)(R=CH3)
  GPT: 22.0 U/l
Serum GPT; DCP-treated rats
  Serum GPT (in words): maintained within standard limits
Peripheral lymphocytes
  blastization (tritiated thymidine incorporation), Young: 703 ± 44 DPM × 100
Peripheral lymphocytes; *P < 0.05
  blastization (tritiated thymidine incorporation), Elderly: 533 ± 29 DPM × 100
[1]; DEM-pretreated hepatocytes, 2.5 and 5 mM
  increase in the GSH content: greater than 170%
[1]; Rattus norvegicus, Hepatocyte, 0 h, DEM + 0.25 mM, 0 time
  activity at 250 µM: 28%
[1]; Rattus norvegicus, Hepatocyte, 0 h, DEM + 0.50 mM, 0 time
  activity at 500 µM: 28.4%
[1]; [3]
  activity at 1000 µM: 25.8%
  activity at 5000 µM: 26.6%
[1]; Rattus norvegicus, Hepatocyte, 0 h, DEM + 2.5 mM, 0 time
  activity at 2500 µM: 23.9%
[1]; Rattus norvegicus, Hepatocyte, 0 h, no DEM, 0.25 mM, 0 time
  activity at 250 µM: 104%
[1]; Rattus norvegicus, Hepatocyte, 0 h, no DEM, 0.50 mM, 0 time
  activity at 500 µM: 107%
[1]; Rattus norvegicus, Hepatocyte, 0 h, no DEM, 2.5 mM, 0 time
  activity at 2500 µM: 99.5%
[1]; Rattus norvegicus, Hepatocyte, 0.5 h, DEM + 0.25 mM, 30 min
  activity at 250 µM: 42.8%
[1]; Rattus norvegicus, Hepatocyte, 0.5 h, DEM + 0.50 mM, 30 min
  activity at 500 µM: 45.7%
[1]; [4]
  activity at 1000 µM: 52.7%
  activity at 5000 µM: 69.4%
[1]; Rattus norvegicus, Hepatocyte, 0.5 h, DEM + 2.5 mM, 30 min
  activity at 2500 µM: 61.1%
[1]; Rattus norvegicus, Hepatocyte, 0.5 h, no DEM, 0.25 mM, 30 min
  activity at 250 µM: 117%
[1]; Rattus norvegicus, Hepatocyte, 0.5 h, no DEM, 0.50 mM, 30 min
  activity at 500 µM: 144%
[1]; Rattus norvegicus, Hepatocyte, 0.5 h, no DEM, 2.5 mM, 30 min
  activity at 2500 µM: 158%
[1]; Rattus norvegicus, Hepatocyte, 1 h, DEM + 0.25 mM, 1 hr
  activity at 250 µM: 54.8%
[1]; Rattus norvegicus, Hepatocyte, 1 h, DEM + 0.50 mM, 1 hr
  activity at 500 µM: 74.2%
[1]; [5]
  activity at 1000 µM: 71%
  activity at 5000 µM: 92%
[1]; Rattus norvegicus, Hepatocyte, 1 h, DEM + 2.5 mM, 1 hr
  activity at 2500 µM: 89%
[1]; Rattus norvegicus, Hepatocyte, 1 h, no DEM, 0.25 mM, 1 hr
  activity at 250 µM: 134%
[1]; Rattus norvegicus, Hepatocyte, 1 h, no DEM, 0.50 mM, 1 hr
  activity at 500 µM: 155%
[1]; Rattus norvegicus, Hepatocyte, 1 h, no DEM, 2.5 mM, 1 hr
  activity at 2500 µM: 182%
[1]; Rattus norvegicus, Hepatocyte, 2 h, DEM + 0.25 mM, 2 hrs
  activity at 250 µM: 81.2%
[1]; Rattus norvegicus, Hepatocyte, 2 h, DEM + 0.50 mM, 2 hrs
  activity at 500 µM: 103%
[1]; [6]
  activity at 1000 µM: 96.7%
  activity at 5000 µM: 119%
[1]; Rattus norvegicus, Hepatocyte, 2 h, DEM + 2.5 mM, 2 hrs
  activity at 2500 µM: 119%
[1]; Rattus norvegicus, Hepatocyte, 2 h, no DEM, 0.25 mM, 2 hrs
  activity at 250 µM: 142%
[1]; Rattus norvegicus, Hepatocyte, 2 h, no DEM, 0.50 mM, 2 hrs
  activity at 500 µM: 159%
[1]; Rattus norvegicus, Hepatocyte, 2 h, no DEM, 2.5 mM, 2 hrs
  activity at 2500 µM: 191%
[1]; Rattus norvegicus, Hepatocyte, 4 h, DEM + 0.25 mM, 4 hrs
  activity at 250 µM: 83%
[1]; Rattus norvegicus, Hepatocyte, 4 h, DEM + 0.50 mM, 4 hrs
  activity at 500 µM: 138%
[1]; [7]
  activity at 1000 µM: 119%
  activity at 5000 µM: 191%
[1]; Rattus norvegicus, Hepatocyte, 4 h, DEM + 2.5 mM, 4 hrs
  activity at 2500 µM: 173%
[1]; Rattus norvegicus, Hepatocyte, 4 h, no DEM, 0.25 mM, 4 hrs
  activity at 250 µM: 146%
[1]; Rattus norvegicus, Hepatocyte, 4 h, no DEM, 0.50 mM, 4 hrs
  activity at 500 µM: 207%
[1]; Rattus norvegicus, Hepatocyte, 4 h, no DEM, 2.5 mM, 4 hrs
  activity at 2500 µM: 211%
[1]; Rattus norvegicus, Hepatocyte, DEM-pretreated hepatocytes, 0.25 mM, 4 hours, read-out: increase in GSH values
  activation at 250 µM: ~80%
[1]; Rattus norvegicus, Hepatocyte, DEM-pretreated hepatocytes, 0.5 mM, 4 hours, read-out: increase in GSH values
  activation at 500 µM: 130 to 140%
[1]; Rattus norvegicus, Hepatocyte, DEM-pretreated hepatocytes, 1 mM, read-out: increase in the GSH content
  activation at 1000 µM: ~120%
[1]; in vitro
  restoring thiol groups and in particular GSH (in words): greatly effective in restoring thiol groups and in particular GSH
[1]; normal hepatocytes
  permeability of the hepatocyte membrane (in words): clearly indicates the permeability of the hepatocyte membrane
[1]; normal hepatocytes, 4 hours
  increase in basal GSH at 2.5 mM compared with 0.5 mM (in words): superimposable to that caused by concentrations five times lower (0.5 mM)
[1]; normal hepatocytes, concentrations from 0.5 mM, after 4 hrs, in respect of controls
  increase in GSH basal values: greater than 180%
[2]; 600 mg/kg
  tumoural growth, fibrosarcoma (in words): prevented tumoural growth; also recorded: significantly slows down the growth of fibrosarcomatous tumours in the rat
[2]; 600 mg/kg i.p., 30 days' treatment
  Tumoral mass diameter, 15th day: 0.6 ± 0.03 cm
